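Results reflect a 48-hour exposure of cells in 96-well plates to compound at five concentrations. At the TGI there is no net growth.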 Where a SMILES comes first, the peptide text is derived from it. The star is where a group is joined. Boc = CC(C)(C)OC(=O)*; OBn = c1ccc(CO*)cc1; Bn = c1ccc(C*)cc1

Experimental findings from PubChem BioAssay (NCI) are described below.

Common to all, as to assay: NCI anticancer screen, dose series, 48 h
Experiment [1] concerns 786-0 renal.
For experiment [2], the system named is CCRF-CEM leukemia.
In experiment [3] the test system is HCT-116 colon.
The subject of experiment [4] is HOP-62 NSCLC.
Experiment [5] relates to HT29 colon.
Experiment [6] relates to MALME-3M melanoma.
The subject of experiment [7] is NCI-H522 lung.
Experiment [8] relates to OVCAR-3 ovarian.
The test system of experiment [9] is RPMI-8226 leukemia.
Experiment [10] relates to SN12C renal.
Experiment [11] deals with SW-620 colon.
The subject of experiment [12] is TK-10 renal.

As for `Cn1cc(C(=O)C2CCCCC2)ccc1=O`, the TGI in experiment [1], in [2], in experiment [3], in experiment [4], in experiment [5] and in experiment [6] was > 100 µM in each case. Besides, the TGI in experiment [7], in experiment [8], in experiment [9], in experiment [10], in [11] and in experiment [12] was > 100 µM in each case.
Consider `COc1ccc(NS(=O)C2CCCCC2)cc1` (centres undefined), for which the TGI in experiment [1], in experiment [2], in [3], in experiment [4], in experiment [5] and in experiment [6] was > 100 µM in each case. Also, the TGI in experiment [7], in experiment [8], in [9], in experiment [10], in [11] and in [12] was > 100 µM each time.
Take `COc1ccccc1NC(=S)N/N=C(/c1ccccc1)c1ccccn1`: the TGI in experiment [1] stood at 18.7 µM; in [2], 9.54 µM; in experiment [3], 14.7 µM; in [4], 12.6 µM; in [5] it was 21 µM; in [6] it was 17.3 µM. Moreover, the TGI was determined as 17.3 µM in experiment [7]; 16.5 µM in experiment [8]; 6.14 µM in experiment [9]; 16.7 µM in experiment [10]; 18.4 µM in [11]; 18.3 µM in experiment [12].
As for `COc1cc(O)c(C(=O)/C=C/c2ccc(O)cc2)cc1Oc1ccc(C(=O)/C=C/c2ccc(O)cc2)c(O)c1`, the TGI in experiment [1] turned out to be 5.73 µM; in experiment [2] it was 33.8 µM; in experiment [3], 4 µM; in experiment [4] it was 9.17 µM; in experiment [5] it was 2.66 µM; in experiment [6], 6.37 µM. For the same molecule, the TGI is 6.22 µM in [7]; 8.14 µM in experiment [8]; 6.49 µM in [9]; 5.99 µM in [10]; 11 µM in [11]; 11.3 µM in experiment [12].
`CCC(C#N)N(Cc1cccc(CN(C(C)=O)C(C#N)CC)c1)C(C)=O` (centres undefined): the TGI in experiment [1], in experiment [2], in experiment [3], in experiment [4], in experiment [5] and in experiment [6] was > 100 µM each time. Moreover, the TGI in [7], in experiment [8], in experiment [9], in experiment [10], in experiment [11] and in experiment [12] was > 100 µM in each case.
Take `CCOC(=O)c1c(OCC)[nH]c(=O)c(C(c2ccc(F)cc2)c2c(O)c(C(=O)OCC)c(OCC)[nH]c2=O)c1O`: the TGI in [1] was 39.7 µM; in experiment [2] it was > 100 µM; in [3], > 100 µM; in experiment [4], 36.1 µM; in [5], 31.7 µM; in [6] it was 29.5 µM. The TGI in [7] was 42 µM; in experiment [8] it was 39.7 µM; in experiment [9], 58.3 µM; in experiment [10], 30.2 µM; in experiment [11], 51.1 µM; in [12], 67.7 µM.
Take `S=C1c2cc(Cl)ccc2NC(=NC2CCCC2)C2CSCN12` (centres undefined): the TGI in experiment [1], in [2], in experiment [3], in experiment [4], in experiment [5] and in [6] was > 100 µM each time. Moreover, the TGI in [7], in experiment [8], in [9], in experiment [10], in [11] and in [12] was > 100 µM each time.
Regarding `CC(C)CC(NC(=O)C(Cc1ccccc1)NC(=O)C(COCc1ccccc1)NC(=O)OC(C)(C)C)C(=O)OCc1ccccc1` (stereo not drawn) (Boc-Ser(Bn)-Phe-Leu-OBn; configuration not given here), the TGI in [1] is 30.8 µM; in experiment [2] it was 63.7 µM; in experiment [3], 32.9 µM; in experiment [4] it was > 100 µM; in [5], 43.9 µM; in [6], > 100 µM. Besides, the TGI was 31.9 µM in [7]; > 100 µM in experiment [8]; 33.2 µM in experiment [9]; 63.9 µM in experiment [10]; 56.7 µM in experiment [11]; > 100 µM in experiment [12].
`Cc1nc2c(=O)[nH]c(=O)nc-2n(CCO)c1C`: the TGI in [1], in [2], in experiment [3], in [4], in experiment [5] and in experiment [6] was > 100 µM in each case. For the same molecule, the TGI in [7], in [8], in [9], in [10], in experiment [11] and in experiment [12] was > 100 µM each time.
`Nc1nc(Cl)cc(NCC2(CO)CC(CCCCc3ccccc3)C2)n1` (centres undefined): the TGI in [1] is > 100 µM; in experiment [2] it was > 100 µM; in [3], > 100 µM; in experiment [4] it was > 100 µM; in [5], 35.3 µM; in [6], > 100 µM. Besides, the TGI in experiment [7] is > 100 µM; in experiment [8], > 100 µM; in experiment [9] it was 86.2 µM; in experiment [10], > 100 µM; in experiment [11], > 100 µM; in experiment [12], > 100 µM.
Turning to `O=Cc1cc(O)c(O)c(O)c1-c1c(C=O)cc(O)c(O)c1O`, the TGI in experiment [1], in experiment [2], in [3], in experiment [4], in experiment [5] and in experiment [6] was > 100 µM in each case. Further, the TGI in [7], in experiment [8], in experiment [9], in experiment [10], in [11] and in experiment [12] was > 100 µM throughout.
For the molecule `CC(=O)NC1C(OCC(=O)NC(C)C(=O)NC(CCC(=O)NCCCCCNc2ccc([N+](=O)[O-])c3[nH]c4ccccc4c(=O)c23)C(N)=O)C(O)C(CO)OC1(C)OCc1ccccc1` (centres undefined), the TGI is > 50 µM in [1]; > 50 µM in experiment [2]; > 50 µM in experiment [3]; > 50 µM in [4]; > 50 µM in experiment [5]; 26.9 µM in experiment [6]. The TGI is > 50 µM in experiment [7]; > 50 µM in experiment [8]; 36.6 µM in experiment [9]; > 50 µM in [10]; > 50 µM in [11]; > 50 µM in experiment [12].
Consider `CCOC(=O)C1(C(=O)OCC)C[C@H]2CON=C2[C@@H]1c1ccc(C(F)(F)F)cc1`, for which the TGI in experiment [1] is > 100 µM; in experiment [2], 23.7 µM; in experiment [3] it was > 100 µM; in [4], 64.9 µM; in experiment [5], > 100 µM; in [6], > 100 µM. Further, the TGI was 61 µM in experiment [7]; > 100 µM in [8]; > 100 µM in [9]; > 100 µM in experiment [10]; > 100 µM in [11]; > 100 µM in experiment [12].
Take `CCOC(=O)Nc1ccc(S(=O)(=O)Nc2ccc(Br)cc2)cc1`: the TGI is > 100 µM in experiment [1]; > 100 µM in experiment [2]; > 100 µM in experiment [3]; 86.7 µM in experiment [4]; > 100 µM in experiment [5]; > 100 µM in experiment [6]. Moreover, the TGI in experiment [7], in [8], in [9], in experiment [10], in experiment [11] and in [12] was > 100 µM each time.
In the case of `CC(=O)OC(C)(C)C1CCC(C)(C(O)COc2ccc(CCNC(=O)c3ccccc3)cc2)O1` (centres undefined), the TGI in experiment [1], in experiment [2], in [3], in experiment [4], in [5] and in experiment [6] was > 100 µM throughout. Moreover, the TGI in [7], in [8], in [9], in experiment [10], in experiment [11] and in experiment [12] was > 100 µM throughout.
For `CCc1nnc2sc(-c3ccc(-c4ccc(Cl)cc4Cl)o3)nn12`, the TGI in experiment [1], in [2], in experiment [3], in [4], in experiment [5] and in experiment [6] was > 100 µM in each case. The TGI in experiment [7], in experiment [8], in experiment [9], in experiment [10], in [11] and in [12] was > 100 µM in each case.
For `CC(=O)C1=CC=C/C1=N\Nc1ccccc1`, the TGI turned out to be 15.4 µM in [1]; 11.2 µM in experiment [2]; 17.5 µM in [3]; 50.9 µM in [4]; 11.5 µM in [5]; 28.4 µM in experiment [6]. Further, the TGI in experiment [7] was found to be 19.1 µM; in experiment [8], 9.57 µM; in [9] it was 7.75 µM; in experiment [10] it was 22.7 µM; in experiment [11] it was 15.6 µM; in experiment [12], 18.6 µM.
Take `CCC1=C(C)C2=NC1=CC1=NC(=C(CC)/C1=C/O)C=C1N=C3C(=C1C)C(=O)C(C(=O)OC)C3=C1NC(=C2)C(C)C1CCC(=O)OC` (centres undefined): the TGI in [1], in [2], in experiment [3], in experiment [4], in [5] and in [6] was > 100 µM in each case. Also, the TGI in experiment [7], in experiment [8], in [9], in experiment [10], in [11] and in [12] was > 100 µM in each case.
Turning to `c1ccc(COc2nc3ccc(C45CC6CC(CC(C6)C4)C5)cc3[nH]2)cc1`, the TGI in experiment [1] is > 100 µM; in [2], > 100 µM; in [3], > 83.5 µM; in [4], > 74.8 µM; in [5], > 100 µM; in experiment [6] it was 86.1 µM. Also, the TGI is 13.9 µM in experiment [7]; > 100 µM in experiment [8]; 30.9 µM in experiment [9]; > 100 µM in [10]; > 100 µM in experiment [11]; > 72.5 µM in [12].
For `Cc1cc(SCC(=O)c2ccc(Br)cc2)cc(C)[o+]1`, the TGI in experiment [1] is > 100 µM; in experiment [2] it was 44 µM; in experiment [3], 65.7 µM; in [4], > 100 µM; in experiment [5], 65.2 µM; in [6], 97.9 µM. The TGI was 65.2 µM in experiment [7]; 49.8 µM in [8]; 52.3 µM in experiment [9]; > 100 µM in [10]; > 100 µM in experiment [11]; 87.9 µM in experiment [12].
Take `CC(C)C[C@H](NC(=O)[C@@H](Cc1cccc2ccccc12)NC(=O)N1CCOCC1)B(O)O`: the TGI came to 19.7 µM in experiment [1]; 15.2 µM in [2]; 5.94 µM in experiment [3]; 33.3 µM in [4]; 8.86 µM in experiment [5]; 2.72 µM in [6]. Besides, the TGI in experiment [7] was found to be 4.4 µM; in experiment [8], 6.69 µM; in [9], 17.4 µM; in experiment [10] it was 20.4 µM; in [11], 12.2 µM; in [12], 25.4 µM.
On to `COc1ccc2c(c1)CC[C@@H]1C2CC[C@]2(C)OC(=O)CCC12` (some centres undefined), for which the TGI in experiment [1] was 17.7 µM; in experiment [2], > 100 µM; in [3], 21.6 µM; in experiment [4], 65.3 µM; in [5], 59.2 µM; in experiment [6], 36 µM. Further, the TGI was 19.4 µM in [7]; 31.4 µM in experiment [8]; > 100 µM in [9]; 29.1 µM in [10]; 24.3 µM in experiment [11]; 97.8 µM in experiment [12].
